Assay results as given in US20140271657A1, “COMBINATORIAL COMPOSITIONS AND METHODS OF TREATING HEMOGLOBINOPATHIES” (CHILDREN'S MEDICAL CENTER CORPORATION, priority 2011, published 2014).

Legend:
human γ-globin genes = assay: Expression of human γ-globin genes monitored by qRT-PCR in β-YAC mice before and after drug treatment; format: in vivo, mouse
Description: The wild-type β-globin locus transgenic (β-YAC) mouse strain was kindly provided by K. Peterson and was created with the insertion of a 213 kb YAC containing the entire human β-globin locus (30). This β-YAC line contains three intact copies of the human β-globin locus integrated at a single genomic locus. The A20 β-YAC line harboring a single copy of a 150 kb β-globin locus YAC was kindly provided by K. Gaensler and M. Groudine (31). These transgenes were maintained in the hemizygous state. C57BL/6 mice containing a Bcl11a floxed allele (with loxP sites flanking exon 1) were created through gene targeting approaches (G.C.I. et al, in preparation). To obtain the Bcl11a conditional knockout mice, the Bcl11a^fl/fl mice were crossed with various Cre strains, including EpoR-GFP Cre knock-in mice (13), Vav-Cre (32) and Mx1-Cre (33) transgenic mice. The humanized mouse model of sickle cell anemia that expresses exclusively human sickle hemoglobin (HbS) was obtained from The Jackson Laboratory and has been described and characterized previously (19). These mice contain the human sickle transgene [Tg(Hu-miniLCRα1^Gγ^Aγδβ^S)Hba^0//Hba^0Hbb^0//Hbb^0] and knockout of both the murine α- and β-globin genes (hereafter called SCD mice). The human sickle transgene were created by three DNA fragments consisting of a 6.5-kb mini-LCR, a 1.5-kb Pst I fragment containing the human α1-globin gene, and a 39-kb Kpn I fragment containing the human ^Gγ, ^Aγ, δ, and β^S globin genes in their normal genomic context (19). No significant difference in globin gene expression and SCD phenotypes were observed between mice that are knockout of one copy or both copies of murine α-globin genes. To generate BCL11A knockout SCD mice, the inventors introduced the EpoR-Cre and Bcl11a^fl/fi alleles into the SCD transgenic knockout mice (hereafter called SCD/Bcl11a^−/− mice). Mice containing both the human sickle transgene and at least one copy of murine β-globin gene were used as controls. PolyI:ployC (pIpC, SIGMA®) was prepared at 2 mg/ml in PBS and administrated via intraperitoneal (i.p.) injection daily at a dose of 25 μg/kg for 7 days. […]
FACS-sorted CD71^+Ter1 19^+ erythroid cells was isolated from bone marrows of 6-week old mice. […] Model-based expression value of probe sets were calculated by dChip from raw AFFYMETRIX® CEL files, and QQ-normalization was then applied to normalize the expression value distribution among multiple arrays (41). […] For quantitative RT-PCR analysis, RNA was extracted using a QIAamp® RNA Blood Mini Kit or an RNeasy® Plus Mini Kit (QIAGEN®). Quantified RNA was reverse-transcribed using an iScript cDNA Synthesis Kit (BIO-RAD®). cDNA samples were analyzed in triplicate with the iQ™ SYBR® Green Supermix using the iCycler Real-Time PCR Detection System (BIO-RAD®). […]

acetyl-H3 (H3ac) = assay: Western blot of acetyl-H3 (H3ac) in whole-cell extracts of bone marrow cells of treated mice; format: in vivo, mouse; conditions: after SAHA treatment, control and Bcl11a−/− (EpoR-Cre+) mice
Description: (§1) The wild-type β-globin locus transgenic (β-YAC) mouse strain was kindly provided by K. Peterson and was created with the insertion of a 213 kb YAC containing the entire human β-globin locus (30). This β-YAC line contains three intact copies of the human β-globin locus integrated at a single genomic locus. The A20 β-YAC line harboring a single copy of a 150 kb β-globin locus YAC was kindly provided by K. Gaensler and M. Groudine (31). These transgenes were maintained in the hemizygous state. C57BL/6 mice containing a Bcl11a floxed allele (with loxP sites flanking exon 1) were created through gene targeting approaches (G.C.I. et al, in preparation). To obtain the Bcl11a conditional knockout mice, the Bcl11a^fl/fl mice were crossed with various Cre strains, including EpoR-GFP Cre knock-in mice (13), Vav-Cre (32) and Mx1-Cre (33) transgenic mice. The humanized mouse model of sickle cell anemia that expresses exclusively human sickle hemoglobin (HbS) was obtained from The Jackson Laboratory and has been described and characterized previously (19). […]
Expression of BCL11A was assessed using antibody 14B5 and 15E3AC11 (Abcam Inc.), as described previously (9). […] GAPDH (sc-25778, Santa Cruz Biotechnology Inc.) was analyzed as a loading control.

[1] = tested on: acetyl-H3 within γ-promoter regions; assay: ChIP of chromatin acetyl-H3 within human globin loci in CD71+Ter119+ BM cells of treated β-YAC mice; format: in vivo, mouse; conditions: after SAHA treatment
Description: as §1
ChIP was performed as previously described (10). […] Precipitated DNA samples were quantified using primers designed to amplify several control regions within the human β-globin locus as indicated below the graph. […]

HDAC = conditions: cited from earlier work; for concentration at which HDAC is inhibited: in vitro or in vivo, literature

O=C(CCCCCCC(=O)Nc1ccccc1)NO [SAHA, suberoylanilide hydroxamic acid]
interaction of SAHA with BCL11A loss in derepression of γ-globin mRNA (human γ-globin genes; Bcl11a−/− (EpoR-Cre+) vs control β-YAC mice, 25 mg/kg daily i.p. for up to three weeks): synergized
level of histone H3 acetylation in bone marrow cells (acetyl-H3 (H3ac)): elevated
level of histone H3 acetylation within γ-promoter regions [1]: elevated

Nc1ncn([C@H]2C[C@H](O)[C@@H](CO)O2)c(=O)n1 [5-azaD, 5-aza-2′-deoxycytidine]
interaction of 5-azaD treatment with BCL11A loss on γ-globin mRNA (human γ-globin genes; Bcl11a−/− (EpoR-Cre+) vs control β-YAC mice, 5 mg/kg daily for 5 days i.p., 5 mg/kg): unexpectedly synergistic
γ-globin mRNA (human γ-globin genes; Bcl11a−/− (EpoR-Cre+) β-YAC mice, 5-azaD 5 mg/kg daily for 5 days i.p.): 37.9%
change in γ-globin mRNA (human γ-globin genes; normal (control, Bcl11a+/+) β-YAC mice, 5-azaD 5 mg/kg daily for 5 days i.p.): very small increment

trichostatin A [TSA]
inhibition of mammalian HDAC (HDAC; literature (Yoshida et al. 1990)): potent inhibitor

CCC(=O)CCCCC[C@@H]1NC(=O)[C@H]2CCCCN2C(=O)[C@H]([C@@H](C)CC)NC(=O)[C@H](Cc2cn(OC)c3ccccc23)NC1=O [Apicidin]
concentration at which HDAC is inhibited (HDAC): nanomolar concentrations

C/C=C1\NC(=O)[C@H]2CSSCC/C=C/[C@H](CC(=O)N[C@H](C(C)C)C(=O)N2)OC(=O)[C@H](C(C)C)NC1=O [FR901228]
concentration at which HDAC is inhibited (HDAC): micromolar concentrations

C=C[C@@H](O)[C@@H]1O[C@H]1/C=C/[C@@H]1O[C@@H]1[C@@H](C)O [depudecin]
concentration at which HDAC is inhibited (HDAC): micromolar concentrations

O=C(/C=C/c1cccc(C(=O)NO)c1)NO [CBHA, m-carboxy-cinnamic acid bishydroxamic acid]
concentration at which HDAC is inhibited (HDAC): micromolar concentration or lower
